Laboratory results reported in patent publication US20180028516A1, “METHODS AND DEVICES FOR THE TREATMENT OF OCULAR DISEASES IN HUMAN SUBJECTS” (CLEARSIDE BIOMEDICAL, INC., priority 2012, published 2018).

Legend:
[1] = Ocular safety and histopathology after SCS TA (Example 8); type: in vivo, pigmented rabbits; details: SCS TA by microneedle, up to 120 days
Procedure: in this study, the total amount of triamcinolone acetonide (TA) delivered into live pigmented rabbit eyes when injected, into the suprachoroidal space using a hollow microneedle or into the vitreous using a standard 30 gauge needle was compared.
On Day 0, pigmented rabbits were injected with either intravitreal or bilateral suprachoroidal injections of 2 mg/100 μl TA Triesence® (TA; Alcon Labs). intravitreal injections were performed using a 30 g needle (Becton-Dickinson) and suprachoroidal injections were performed using a 33 g 750 μm microneedle. The residual amount of TA present in the syringe/needle assembly after injection was determined by RP-HPLC. Clinical observations, slit lamp biomicroscopy with McDonald-Shadduck scoring, intraocular pressure assessment (IOP), electroretinography (ERG), and systemic exposure were assessed up to 120 days post-dose. Animals were sacrificed at 30 minutes, 7 days, 30 days, 60 days, and 120 days for macroscopic observations, ocular toxicokinetics, and ocular histopathology.

[2] = Ophthalmic examinations (slit lamp, fundus) and clinical observations after SCS TA (Example 9); type: in vivo, New Zealand White rabbit
Procedure: (§1) In this study, the ocular tolerability and toxicokinetics of suprachoroidal administration of triamcinolone acetonide (TA) using a microneedle in a GLP study in the New Zealand White rabbit.
(§2) On Day 0, New Zealand White (NZW) rabbits were administered a single bilateral supraehoroidal injection of vehicle, 3.2 mg (80 μL) or 5.2 mg (130 μL) of TA (Triesence®, Alcoa labs) using a 33 g 750 μm microneedle. Clinical observations, slit lamp biomicroscopy with McDonald-Shadduck scoring, intraocular pressure assessment (IOP), electroretinography (ERG), and systemic exposure were assessed up to 26 weeks post-dose. Animals were sacrificed on Day 1, Week 13, and Week 26 for macroscopic observations, ocular toxicokinetics, and ocular histopathology.

[3] = Scotopic electroretinography after SCS TA (Example 9); type: in vivo, New Zealand White rabbit; details: for Scotopic OdB wave A, Amplitude, Mean / Scotopic OdB wave A, Time, Mean / Scotopic OdB wave B, Amplitude, Mean / Scotopic OdB wave B, Time, Mean: right & left eye
Procedure: as §1, §2

[4] = Clinical observations and tolerability, SCS vs IVT TA (Example 10); type: in vivo, New Zealand White rabbit
Procedure: In this study, the ocular and systemic pharmacokinetics (PK) of triar cinolone acetonide (TA) in the New Zealand White rabbit following intravitreal […] injection or administration into the suprachoroidal space (SCS) using a hollow rnicroneedle were evaluated.
On Day 0, male rabbits (5 per group) received a single bilateral administration of 4 mg TA (100 μL Triesence triamcinolone formulationAlcon Labs) via SCS injection using a 33 g 750 μm microneedle or an IVT injection using a standard 30 g needle. The study design is shown below in Table 4.
Clinical observations, body weights, and intraocular pressure (IOP) were assessed up to 13 weeks post-dose. Plasma and ocular matrixes (aqueous humor (AH), lens, iris/ciliary body (ICB), vitreous humor (VH), sclera/choroid (SC), and retina) were sampled on Days 1, 14, 28, 56, and 91. Plasma (LLOQ 0.5 ng/mL) and ocular matrixes (LLOQ 2 -15 ng/mL) were analyzed using LC-MS/MS, and resulting data were assessed for noncompartmentat PK parameters.

[5] = Optical coherence tomography, retinal thickness (Example 13); type: in vivo, domestic weanling pigs; details: all groups, prior to or following the injections
Text: Following wide-field ocular tlindus photography on Days −1, 0, and 3, the central retina was imaged with spectral-domain optical coherence tomography (SD-OCT) (Bioptigen SDOCT EnVisu Ophthalmic Imaging System, Durham, N.C.) using 6 imaging protocols (including rectangular volume scans of 6, 8, and 12 mm, and doppler rectangular volume).

[6] = Ophthalmic examinations and clinical observations after 4 mg SCS TA (Example 16); type: in vivo, New Zealand White rabbit; details: single bilateral suprachoroidal injection of 4 mg TA, albino rabbit
Procedure: (§3) In this study, the ocular tolerability and toxicokinetics of suprachoroidal administration of Ting triamcinolone acetonide (TA) using microneedle was determined, in the New Zealand White rabbit as an animal model.
(§4) On Day 0, New Zealand White (NZW) rabbits (4/sex/group/terminal time point, 48 total) were administered a single bilateral suprachoroidal injection of 100 μL of 4 ma TA (40 mg/mL) or vehicle, using a 33 g 750 μm microneedle. Clinical Observations, body weights, food consumption, slit lamp biomicroscopy with McDonald-Shadduck scoring, indirect ophthalmoscopy, intraocular pressure assessment (IOP), central corneal thickness (CCT), electroretinography (ERG), serum chemistry and hematology, and systemic exposure were assessed up to 13 weeks post-dose. Animals were sacrificed on Day 1 or Week 13 and were evaluated for macroscopic observations at necropsy and ocular histopathology. Four animals/sex were given an additional suprachoroidal administration on Day 90, and will be followed for an additional 13 weeks.

[7] = parameters: species or system New Zealand White rabbit; details: rabbit, in vivo
Procedure: as §3, §4

[8] = tested on: LPS-induced acute posterior uveitis; test: Ocular inflammatory scores in LPS-induced porcine uveitis (Example 13); details: for mean cumulative inflammatory scores compared with Group 1 (BSS IVT/vehicle SCS): Days 1, 2, and 3
Procedure: A totalof 20 domestic wearrling pigs (Sus sergfir domesticus), male or female, (12-20 kg) were used in this study. Only the left eye was tested in this study; the right eye was not injected, examined, or treated. All injections were performed with the pigs anesthetized (intramuscular Telazol-Ketamine-Xylazine and isoflorane in oxygen via mask) and the eve prepared aseptically (sterile 5% betadine solution followed by irrigation with sterile eyewash).
Twenty-four hours prior to SCS or IVT injection of TA or vehicle (Day-1), 100 ng of lipopolysaccharide (ITS; E. coli 055:B55; Sigma, Inc. St. Louis, Mo.) in 100 μL BSS (Balanced Salt Solution, Alcon Laboratories, Inc., Forth Worth, Tex.), was injected using a 27 gauge needle into the posterior central vitreous.
Twenty-four hours after the LPS injection (Day 0), 0.2 mg or 2.0 mg of commercially-available TA (Triesence®; Alcon Laboratories, Inc, Forth Worth, Tex.) or vehicle was injected either intravitreally (27 gauge needle) or into the SCS (33 gauge, 850 μm microneedle) in eyes prepared aseptically (Table 7). The dose of TA was selected to represent a typical therapeutic dose (e.g., 2.0 mg) and a dose 10 times less to compare therapeutic effect.
All injections were made superiorly, approximately 5-6 mm posterior to the limbus. […] TA was diluted using vehicle to provide a low dose (0.2 mg/100 μL) or high dose (2.0 mg/100 μL). The vehicle (100 uL) was also used in the control groups, but without TA.
A Hackett-McDonald microscopic ocular inflammatory scoring system, modified for use in pigs (instead of New Zealand White rabbits) as described below, was used to evaluate the ocular anterior segment and anterior vitreous. Scores of the conjunctiva (congestion, swelling, discharge, 0-4); aqueous flare (0-3); pupillary light reflex (0-2); iris involvement (0-4); cornea (involvement and area, 0-4); pannus (vascularization, 0-2); and anterior vitreal cellular infiltrate (0-4) were summed to provide a single inflammatory score for each animal for each examination. Using a portable slit lamp biomicroscope (Zeiss HSO-10, Carl Zeiss Meditec, Inc. USA), ocular inflammatory scores were evaluated at Day -1 (prior to LPS injection), at Day 0 (prior to vehicle or TA injection), then at 1, 2 and 3 days after injection,
For histologic grading, two independent observers masked to the treatment group evaluated each eye at each time point and the average resulting scores for each animal were used for analysis, Parametric normally distributed data (i.e., IOP, ERG, retinal thickness, cell counts, protein concentration) were compared by time point for each group using 1-way ANOVA models with Tukey-Kramer post-hoc analysis. For non-parametric data (i.e., clinical scores, histologic grades), Wilcoxon tests were conducted per animal by time point. Differences were considered significant at P<0.05. Results and probAilities were calculated using computerized statistical software (JMP 10, SAS Inc. Cary, N.C.).

[9] = 3.2 mg TA/eye SCS, F, 13 weeks post administration
[10] = 5.2 mg TA/eye SCS, F, 13 weeks post administration
[11] = 5.2 mg TA/eye SCS, M, 13 weeks post administration

## CC1(C)O[C@@H]2C[C@H]3[C@@H]4CCC5=CC(=O)C=C[C@]5(C)[C@@]4(F)[C@@H](O)C[C@]3(C)[C@]2(C(=O)CO)O1 [TA, triamcinolone acetonide]
[1]
  safety profile (inflammation, edema, apoptosis, necrosis): no marked inflammation, edema, apoptosis, or necrosis at any time point
[2]; [9]
  Conjunctival congestion (slight, transient), animals with finding: 2
  Conjunctival discharge (slight, transient), animals with finding: 2
  Corneal Staining (slight, transient), animals with finding: 1
  Hyperemia (severe, transient), animals with finding: 1
  Lens Defect (anatomic defect unrelated to administration), animals with finding: 1
[2]; 3.2 mg TA/eye SCS, M, 13 weeks post administration
  Corneal Staining (slight, transient), animals with finding: 1
[2]; [10]
  Conjunctival discharge (slight, transient), animals with finding: 1
  Corneal Staining (slight, transient), animals with finding: 2
[2]; [11]
  Conjunctival congestion (slight, transient), animals with finding: 1
  Corneal Staining (slight, transient), animals with finding: 4
[2]; 3.2 or 5.2 mg TA SCS
  adverse effects on clinical observations, body weight, or ophthalmic examinations: no adverse effects
  adverse effects related to treatment: no observed adverse effects
[2]; 3.2 or 5.2 mg TA SCS, up to 13 weeks
  findings during slit lamp biomicroscopy and fundus examination: generally mild and transient in nature
[3]; 3.2 mg TA/eye SCS, Baseline
  Scotopic OdB wave A, Amplitude, Mean: −133.2 μV
  Scotopic OdB wave A, Time, Mean: 11.6 ms
  Scotopic OdB wave B, Amplitude, Mean: 285.8 μV
  Scotopic OdB wave B, Time, Mean: 42.1 ms
[3]; 3.2 mg TA/eye SCS, Day 1
  Scotopic OdB wave A, Amplitude, Mean: −132 μV
  Scotopic OdB wave A, Time, Mean: 11.4 ms
  Scotopic OdB wave B, Amplitude, Mean: 276.5 μV
  Scotopic OdB wave B, Time, Mean: 47.5 ms
[3]; 3.2 mg TA/eye SCS, Week 13
  Scotopic OdB wave A, Amplitude, Mean: −132.6 μV
  Scotopic OdB wave A, Time, Mean: 11.7 ms
  Scotopic OdB wave B, Amplitude, Mean: 299.8 μV
  Scotopic OdB wave B, Time, Mean: 51.1 ms
[3]; 5.2 mg TA/eye SCS, Baseline
  Scotopic OdB wave A, Amplitude, Mean: −137.3 μV
  Scotopic OdB wave A, Time, Mean: 11.7 ms
  Scotopic OdB wave B, Amplitude, Mean: 286.4 μV
  Scotopic OdB wave B, Time, Mean: 42.3 ms
[3]; 5.2 mg TA/eye SCS, Day 1
  Scotopic OdB wave A, Amplitude, Mean: −130.8 μV
  Scotopic OdB wave A, Time, Mean: 11.4 ms
  Scotopic OdB wave B, Amplitude, Mean: 265.7 μV
  Scotopic OdB wave B, Time, Mean: 43.1 ms
[3]; 5.2 mg TA/eye SCS, Week 13
  Scotopic OdB wave A, Amplitude, Mean: −117.1 μV
  Scotopic OdB wave A, Time, Mean: 12.6 ms
  Scotopic OdB wave B, Amplitude, Mean: 264.6 μV
  Scotopic OdB wave B, Time, Mean: 45.7 ms
[3]; 3.2 or 5.2 mg TA SCS
  effect on a-wave or b-wave implicit time or amplitude (scotopic ERG): no administration or TA-related effect
[4]; SCS and IVT, 4 mg TA
  adverse effects related to treatment or method of administration: no observed adverse effects
[4]; both IVT and SCS TA, 4 mg, albino rabbit
  tolerability: well tolerated
[5]
  retinal thickness (SD-OCT), difference between groups: no significant difference
[6]
  tolerability: well tolerated
[7]
  IOP change related to the injection procedure: decrease
  adverse effects related to the method of administration or 4 mg TA as assessed by histopathology: no adverse effects
  central corneal thickness (CCT): slight decrease
[7]; 4 mg
  mean Cmax in plasma: 0.012 µg/mL
[8]; 0.2 mg TA IVT
  effectiveness in reducing acute ocular inflammation: less effective
[8]; 0.2 mg TA IVT (Group 5), 24 hours after treatment (Day 1)
  mean cumulative inflammatory scores compared with Groups 1, 3, 4 and 6: significantly higher
[8]; 0.2 mg TA IVT, 48 and 72 hours after treatment
  mean cumulative inflammatory scores compared with SCS TA (Groups 3 and 4) and Group 1: significantly higher mean scores
[8]; 0.2 mg TA SCS (Group 3)
  mean cumulative inflammatory scores compared with Group 1 (BSS IVT/vehicle SCS): not significantly different
[8]; 2.0 mg TA SCS (Group 4)
  mean cumulative inflammatory scores compared with Group 1 (BSS IVT/vehicle SCS): not significantly different
[8]; SCS injection of 0.2 mg and 2.0 mg of TA
  effectiveness in reducing inflammation compared with 2.0 mg TA IVT injection: as effective
[8]; SCS vs IVT
  decrease in effective dose when the drug is delivered to the SCS: 10 fold
